Patent US6916803B2, “3-(Heteroaryl acetamido)-2-oxo-azetidine-1-sulfonic acids derivatives as antibacterial agents” (Pantherix, Ltd., priority 2000, dated 2005)
Values after ≈ are worked out from the molar mass of the structure shown. Like-named read-outs stand apart in the source and are kept apart here.

What was measured:
Assay in all cases: MIC, standard microbroth dilution method (NCCLS)
Format in all cases: cell-based
P. aeruginosa S 1598 = conditions: Pseudomonas aeruginosa, S1598
Description: (§1) The compounds of the present invention were tested for minimum inhibitory concentration (MIC) against the bacteria listed in Table-1 according to the standard microbroth dilution method as described in NCCLS document. The minimum inhibitory concentration is expressed in μg/ml.

M Morganii K 1250 = system: M Morganii K 1250
Description: as §1

C. freundii K 500 = conditions: Citrobacter freundii, K500
Description: as §1

P. aeruginosa CL 1267 = conditions: Pseudomonas aeruginosa, CL1267
Description: as §1

P. aeruginosa PD 2721 = conditions: Pseudomonas aeruginosa, PD2721
Description: as §1

E. cloaacae S 480-2 = system: E. cloaacae S 480-2
Description: as §1

E. coli TEM-2 = conditions: Escherichia coli, TEM2
Description: as §1

K pneumoniae K-1150 = system: K pneumoniae K-1150
Description: as §1

Row | Structure (SMILES) | MIC (P. aeruginosa S 1598) | MIC (M Morganii K 1250) | MIC (C. freundii K 500) | MIC (P. aeruginosa CL 1267) | MIC (P. aeruginosa PD 2721) | MIC (E. cloaacae S 480-2) | MIC (E. coli TEM-2; E. coli TEM-2, read-out: MIC) | MIC (K pneumoniae K-1150) | MIC (E. coli TEM-2)
1 | NC(=O)OC[C@@H]1[C@H](NC(=O)/C(=N\OCC(=O)O)c2csc(N)n2)C(=O)N1S(=O)(=O)O [Carumonam, reference compound] | 8 µg/mL (≈ 17.2 µM) | 0.06 µg/mL (≈ 0.129 µM) | 0.06 µg/mL (≈ 0.129 µM) | 8 µg/mL (≈ 17.2 µM) | 32 µg/mL (≈ 68.6 µM) | 0.06 µg/mL (≈ 0.129 µM) | 0.06 µg/mL (≈ 0.129 µM) | 0.06 µg/mL (≈ 0.129 µM) | 
2 | C[C@H]1[C@H](NC(=O)/C(=N\OCc2cc(=O)c(O)cn2O)c2csc(N)n2)C(=O)N1S(=O)(=O)[O-].[Na+] [Example 1] | 0.13 µg/mL | 0.06 µg/mL | 0.13 µg/mL | 0.06 µg/mL | 4 µg/mL | 0.06 µg/mL |  | 0.13 µg/mL | 0.06 µg/mL
3 | C[C@H]1[C@H](NC(=O)/C(=N\OC(C)(C)C(=O)O)c2csc(N)n2)C(=O)N1S(=O)(=O)O [Aztreonam, reference compound] | 32 µg/mL (≈ 73.5 µM) | 0.06 µg/mL (≈ 0.138 µM) | 0.13 µg/mL (≈ 0.299 µM) |  | 64 µg/mL (≈ 147 µM) | 0.13 µg/mL (≈ 0.299 µM) | 0.06 µg/mL (≈ 0.138 µM) | 0.06 µg/mL (≈ 0.138 µM) | 
4 | NC(=O)OCC1C(NC(=O)/C(=N\OCc2cc(=O)c(O)cn2O)c2csc(N)n2)C(=O)N1S(=O)(=O)[O-].[Na+] (stereo not drawn) [Example 2, 3-[2-(2-Aminothiazol-4-yl)-(Z)-2-{(1,5-dihydroxy-4-pyridon-2-ylmethoxy)imino}-acetamido]-4-carbamoyloxymethyl-2-azetidinone-1-sulfonic acid, sodium salt] | 0.13 µg/mL | 0.13 µg/mL | 0.5 µg/mL | 0.06 µg/mL | 128 µg/mL | 0.25 µg/mL |  | 0.06 µg/mL | 0.06 µg/mL
5 | Nc1nc(/C(=N/OCc2cc(=O)c(O)cn2O)C(=O)NC2C(=O)N(S(=O)(=O)[O-])C2CF)cs1.[Na+] (stereo not drawn) [Example 3, 3-[2-(2-Aminothiazol-4-yl)-(Z)-2-{(1,5-dihydroxy-4-pyridon-2-yl-methoxy)imino}-acetamido]-4-fluoromethyl-2-azetidinone-1-sulfonic acid, sodium salt] | 0.13 µg/mL | 0.06 µg/mL | 0.5 µg/mL | 0.06 µg/mL | 32 µg/mL | 2 µg/mL |  | 0.06 µg/mL | 0.06 µg/mL
